Counter-ions that a name gives are not always drawn. Like-named read-outs stand apart in the source and are kept apart here.
Experiments:
Format in all cases: biochemical
PI3Kβ = PI3Kβ (Homo sapiens (Human), UniProt P42338); experiment: TR-FRET enzymatic assay of PI3K isoforms (PI3Kβ); settings: TR-FRET, 2×Km ATP, 2 μM PIP2, incubated for 30 minutes at 25° C.; read-out: β IC50
Procedure: (§1) The compounds of formula (I) were characterized for their enzymatic activity against the PI3K isoforms. Certain compounds of the present application, including certain compounds of formula (II) and (III) were also characterized for their enzymatic activity against PI3K isoforms. The activities were measured using a time-resolved fluorescence resonance energy transfer (TR-FRET) assay.

PI3Kδ = PI3Kδ (Homo sapiens (Human), UniProt O00329); experiment: TR-FRET enzymatic assay of PI3K isoforms (PI3Kδ); settings: 2×Km ATP, 2 μM PIP2, incubated for 30 minutes at 25° C., read-out: δ IC50
Procedure: as §1

PI3Kγ = PI3Kγ (Homo sapiens (Human), UniProt P48736); experiment: TR-FRET enzymatic assay of PI3K isoforms (PI3Kγ); settings: read-out: γ IC50
Procedure: as §1

[1] = TR-FRET, 2×Km ATP, 2 μM PIP2, PI3Kγ at 2 nM, incubated for 30 minutes at 25° C.

PI3Kδ, sequence (O00329 whole entry, canonical isoform): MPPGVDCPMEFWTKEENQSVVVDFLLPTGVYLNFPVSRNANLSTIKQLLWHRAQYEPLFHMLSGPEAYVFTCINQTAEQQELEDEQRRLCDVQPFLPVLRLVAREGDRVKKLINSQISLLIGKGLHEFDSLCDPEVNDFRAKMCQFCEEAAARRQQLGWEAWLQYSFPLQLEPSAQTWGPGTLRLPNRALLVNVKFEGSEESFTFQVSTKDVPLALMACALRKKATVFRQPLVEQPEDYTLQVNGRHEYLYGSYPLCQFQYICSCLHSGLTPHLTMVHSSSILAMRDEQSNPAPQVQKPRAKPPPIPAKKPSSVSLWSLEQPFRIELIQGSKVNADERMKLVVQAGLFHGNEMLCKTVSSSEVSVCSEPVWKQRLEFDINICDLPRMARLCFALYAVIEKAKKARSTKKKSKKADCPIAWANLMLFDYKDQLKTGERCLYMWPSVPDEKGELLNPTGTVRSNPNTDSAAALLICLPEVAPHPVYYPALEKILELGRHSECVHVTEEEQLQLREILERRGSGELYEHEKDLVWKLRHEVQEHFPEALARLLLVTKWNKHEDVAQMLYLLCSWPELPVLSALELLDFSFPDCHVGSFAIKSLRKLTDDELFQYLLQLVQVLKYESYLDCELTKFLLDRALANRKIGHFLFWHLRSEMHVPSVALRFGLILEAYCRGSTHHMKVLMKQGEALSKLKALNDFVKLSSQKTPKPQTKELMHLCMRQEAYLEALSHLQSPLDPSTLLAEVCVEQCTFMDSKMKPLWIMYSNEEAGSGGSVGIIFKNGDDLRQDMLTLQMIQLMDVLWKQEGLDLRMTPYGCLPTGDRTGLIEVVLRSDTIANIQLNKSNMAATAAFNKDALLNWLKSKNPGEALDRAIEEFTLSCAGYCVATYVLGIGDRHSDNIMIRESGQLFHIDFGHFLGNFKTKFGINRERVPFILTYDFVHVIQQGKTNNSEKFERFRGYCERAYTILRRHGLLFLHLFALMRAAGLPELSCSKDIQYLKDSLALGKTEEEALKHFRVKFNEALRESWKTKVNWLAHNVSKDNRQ
PI3Kδ, sequence (P27986 whole entry partner, canonical isoform): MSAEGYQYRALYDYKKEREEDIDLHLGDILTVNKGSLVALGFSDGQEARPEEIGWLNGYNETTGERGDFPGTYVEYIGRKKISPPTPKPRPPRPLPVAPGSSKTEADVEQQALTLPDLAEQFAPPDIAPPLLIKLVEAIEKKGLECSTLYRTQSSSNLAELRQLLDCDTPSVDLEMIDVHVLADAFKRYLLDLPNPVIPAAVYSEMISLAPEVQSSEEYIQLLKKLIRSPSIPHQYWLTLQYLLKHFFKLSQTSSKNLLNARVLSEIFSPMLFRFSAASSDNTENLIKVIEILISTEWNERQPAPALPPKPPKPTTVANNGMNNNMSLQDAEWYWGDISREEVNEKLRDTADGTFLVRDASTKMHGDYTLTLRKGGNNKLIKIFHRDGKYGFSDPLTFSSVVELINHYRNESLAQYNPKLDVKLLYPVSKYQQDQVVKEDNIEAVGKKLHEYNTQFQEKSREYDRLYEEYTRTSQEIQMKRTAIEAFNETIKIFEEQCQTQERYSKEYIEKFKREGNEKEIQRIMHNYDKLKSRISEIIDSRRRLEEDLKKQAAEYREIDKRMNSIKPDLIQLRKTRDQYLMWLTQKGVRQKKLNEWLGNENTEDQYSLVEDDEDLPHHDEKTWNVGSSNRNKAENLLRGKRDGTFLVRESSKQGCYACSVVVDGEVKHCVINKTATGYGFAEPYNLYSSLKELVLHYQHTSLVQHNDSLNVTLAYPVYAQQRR
PI3Kγ, sequence (P48736 whole entry, canonical isoform): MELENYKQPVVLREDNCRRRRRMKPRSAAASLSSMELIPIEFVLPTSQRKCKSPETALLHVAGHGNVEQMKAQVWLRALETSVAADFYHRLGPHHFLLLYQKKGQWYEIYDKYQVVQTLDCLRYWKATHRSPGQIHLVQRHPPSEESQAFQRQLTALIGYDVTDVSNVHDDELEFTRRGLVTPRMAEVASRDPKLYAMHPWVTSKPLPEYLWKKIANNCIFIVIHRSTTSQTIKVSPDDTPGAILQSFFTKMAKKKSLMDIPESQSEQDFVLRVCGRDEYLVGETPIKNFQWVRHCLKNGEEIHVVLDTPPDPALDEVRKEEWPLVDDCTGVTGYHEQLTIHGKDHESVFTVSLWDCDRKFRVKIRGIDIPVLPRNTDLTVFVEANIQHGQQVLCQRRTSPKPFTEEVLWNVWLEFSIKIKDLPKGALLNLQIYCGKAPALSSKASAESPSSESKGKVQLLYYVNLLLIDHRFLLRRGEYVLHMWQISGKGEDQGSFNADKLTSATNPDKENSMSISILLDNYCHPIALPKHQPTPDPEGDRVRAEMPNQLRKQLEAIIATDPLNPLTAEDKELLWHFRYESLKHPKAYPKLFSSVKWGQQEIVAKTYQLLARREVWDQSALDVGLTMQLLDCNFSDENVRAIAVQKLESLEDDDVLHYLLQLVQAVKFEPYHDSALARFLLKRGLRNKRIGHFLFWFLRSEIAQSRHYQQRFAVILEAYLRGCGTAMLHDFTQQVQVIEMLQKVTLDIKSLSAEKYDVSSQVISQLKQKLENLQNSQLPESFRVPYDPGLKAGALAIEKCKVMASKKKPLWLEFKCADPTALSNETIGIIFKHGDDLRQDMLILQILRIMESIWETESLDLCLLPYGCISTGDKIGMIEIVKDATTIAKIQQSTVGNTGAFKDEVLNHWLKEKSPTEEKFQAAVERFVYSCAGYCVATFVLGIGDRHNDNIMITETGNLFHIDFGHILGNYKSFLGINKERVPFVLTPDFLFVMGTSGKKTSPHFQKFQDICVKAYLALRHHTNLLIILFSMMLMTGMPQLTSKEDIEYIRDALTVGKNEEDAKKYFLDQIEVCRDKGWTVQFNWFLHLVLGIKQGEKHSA
PI3Kγ, sequence (Q8WYR1 whole entry partner, canonical isoform): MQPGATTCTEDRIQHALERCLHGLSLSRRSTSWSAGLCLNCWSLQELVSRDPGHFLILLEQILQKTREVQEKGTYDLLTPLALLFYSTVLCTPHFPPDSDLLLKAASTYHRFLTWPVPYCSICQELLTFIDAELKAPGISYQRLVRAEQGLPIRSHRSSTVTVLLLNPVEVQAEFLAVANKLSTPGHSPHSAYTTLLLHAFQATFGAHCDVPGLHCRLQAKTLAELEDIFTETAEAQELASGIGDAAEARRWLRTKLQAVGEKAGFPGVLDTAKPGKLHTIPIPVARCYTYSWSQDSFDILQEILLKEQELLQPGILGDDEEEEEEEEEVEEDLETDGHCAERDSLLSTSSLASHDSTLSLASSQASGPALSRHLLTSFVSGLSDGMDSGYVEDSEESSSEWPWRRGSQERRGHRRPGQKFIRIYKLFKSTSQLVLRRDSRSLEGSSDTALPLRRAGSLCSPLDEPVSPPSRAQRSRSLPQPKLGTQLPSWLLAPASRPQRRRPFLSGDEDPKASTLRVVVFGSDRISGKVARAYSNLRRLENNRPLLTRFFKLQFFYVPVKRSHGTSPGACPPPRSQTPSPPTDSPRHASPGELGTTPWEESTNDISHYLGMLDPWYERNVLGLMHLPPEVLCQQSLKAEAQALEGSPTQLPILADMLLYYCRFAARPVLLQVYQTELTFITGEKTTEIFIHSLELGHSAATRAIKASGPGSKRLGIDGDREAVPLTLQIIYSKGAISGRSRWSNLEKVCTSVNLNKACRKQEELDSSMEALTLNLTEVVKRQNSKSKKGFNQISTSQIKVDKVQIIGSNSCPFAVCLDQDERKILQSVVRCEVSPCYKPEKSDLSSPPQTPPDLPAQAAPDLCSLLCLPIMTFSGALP
PI3Kβ, sequence (P42338 whole entry, canonical isoform): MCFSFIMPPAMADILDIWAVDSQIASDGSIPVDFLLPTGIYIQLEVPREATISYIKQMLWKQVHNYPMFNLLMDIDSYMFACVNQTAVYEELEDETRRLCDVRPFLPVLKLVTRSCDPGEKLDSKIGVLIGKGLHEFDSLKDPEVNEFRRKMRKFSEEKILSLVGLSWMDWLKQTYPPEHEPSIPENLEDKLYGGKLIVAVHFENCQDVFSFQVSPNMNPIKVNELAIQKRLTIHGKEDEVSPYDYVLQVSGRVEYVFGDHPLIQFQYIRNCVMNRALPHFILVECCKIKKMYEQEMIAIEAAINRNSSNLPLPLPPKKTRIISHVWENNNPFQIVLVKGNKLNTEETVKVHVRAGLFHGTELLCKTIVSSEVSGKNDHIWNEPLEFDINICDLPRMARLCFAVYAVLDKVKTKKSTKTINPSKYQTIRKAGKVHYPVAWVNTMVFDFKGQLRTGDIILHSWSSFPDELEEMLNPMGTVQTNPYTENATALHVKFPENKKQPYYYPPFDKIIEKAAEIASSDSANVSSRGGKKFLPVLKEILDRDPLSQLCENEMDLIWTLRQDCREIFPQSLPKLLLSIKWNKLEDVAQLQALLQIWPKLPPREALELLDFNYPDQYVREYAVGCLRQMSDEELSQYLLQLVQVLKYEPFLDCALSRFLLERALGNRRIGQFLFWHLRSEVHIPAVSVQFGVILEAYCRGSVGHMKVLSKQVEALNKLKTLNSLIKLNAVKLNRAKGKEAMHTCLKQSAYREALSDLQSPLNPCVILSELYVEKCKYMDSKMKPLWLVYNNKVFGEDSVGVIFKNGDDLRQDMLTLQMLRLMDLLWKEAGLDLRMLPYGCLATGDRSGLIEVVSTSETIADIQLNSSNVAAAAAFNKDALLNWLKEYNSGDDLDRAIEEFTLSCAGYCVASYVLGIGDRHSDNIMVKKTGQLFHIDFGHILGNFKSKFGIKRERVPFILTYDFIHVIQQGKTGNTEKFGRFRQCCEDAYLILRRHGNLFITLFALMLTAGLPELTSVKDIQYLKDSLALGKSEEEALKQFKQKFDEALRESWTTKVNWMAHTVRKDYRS
PI3Kβ, sequence (P27986 whole entry partner, canonical isoform): as the sequence (P27986 whole entry partner, canonical isoform) above

| IC50 (PI3Kβ) | IC50 (PI3Kδ) | IC50 (PI3Kγ; [1]) | IC50 (PI3Kγ) | SMILES |
| --- | --- | --- | --- | --- |
| 6 nM | 26 nM | 1600 nM |  | C[C@H](Nc1ncnc2[nH]cnc12)c1nc2cccc(Cl)c2c(=O)n1-c1cccc(NC(=O)Nc2ccncc2Cl)c1 [Compound 112, (S)-1-(3-(2-(1-((9H-purin-6-yl)amino)ethyl)-5-chloro-4-oxoquinazolin-3(4H)-yl)phenyl)-3-(3-chloropyridin-4-yl)urea] |
| 37 nM | 10 nM | 3800 nM |  | C[C@H](Nc1ncnc(N)c1C#N)c1nc2cccc(Cl)c2c(=O)n1-c1cccc(NC(=O)Nc2nnn[nH]2)c1 [Compound 114, (S)-1-(3-(2-(1-((6-amino-5-cyanopyrimidin-4-yl)amino)ethyl)-5-chloro-4-oxoquinazolin-3(4H)-yl)phenyl)-3-(1H-tetrazol-5-yl)urea] |
| 14 nM | 5 nM | 3700 nM |  | CONC(=O)Nc1cccc(-n2c([C@H](C)Nc3ncnc(N)c3C#N)nc3cccc(Cl)c3c2=O)c1 [Compound 115, (S)-1-(3-(2-(1-((6-amino-5-cyanopyrimidin-4-yl)amino)ethyl)-5-chloro-4-oxoquinazolin-3(4H)-yl)phenyl)-3-methoxyurea] |
| 4 nM | 6 nM | 8300 nM |  | C[C@H](Nc1ncnc(N)c1C#N)c1nc2cccc(Cl)c2c(=O)n1-c1cccc(NC(=O)NCCO)c1 [Compound 117, (S)-1-(3-(2-(1-((6-amino-5-cyanopyrimidin-4-yl)amino)ethyl)-5-chloro-4-oxoquinazolin-3(4H)-yl)phenyl)-3-(2-hydroxyethyl)urea] |
| 3 nM | 8 nM | 1000 nM |  | C[C@H](Nc1ncnc(N)c1C#N)c1nc2cccc(Cl)c2c(=O)n1-c1cccc(NC(=O)Nc2ccccc2)c1 [Compound 118, (S)-1-(3-(2-(1-((6-amino-5-cyanopyrimidin-4-yl)amino)ethyl)-5-chloro-4-oxoquinazolin-3(4H)-yl)phenyl)-3-phenylurea] |
| 9 nM | 7 nM | 4800 nM |  | CC(C)NC(=O)Nc1cccc(-n2c([C@H](C)Nc3ncnc(N)c3C#N)nc3cccc(Cl)c3c2=O)c1 [Compound 120, (S)-1-(3-(2-(1-((6-amino-5-cyanopyrimidin-4-yl)amino)ethyl)-5-chloro-4-oxoquinazolin-3(4H)-yl)phenyl)-3-isopropylurea] |
| 3 nM | 3 nM | 1600 nM |  | C[C@H](Nc1ncnc(N)c1C#N)c1nc2cccc(Cl)c2c(=O)n1-c1cccc(NC(=O)NC2CCCC2)c1 [Compound 121, (S)-1-(3-(2-(1-((6-amino-5-cyanopyrimidin-4-yl)amino)ethyl)-5-chloro-4-oxoquinazolin-3(4H)-yl)phenyl)-3-cyclopentylurea] |
| 3 nM | 4 nM | 2000 nM |  | C[C@H](Nc1ncnc(N)c1C#N)c1nc2cccc(Cl)c2c(=O)n1-c1cccc(NC(=O)NC2CCCCC2)c1 [Compound 122, (S)-1-(3-(2-(1-((6-amino-5-cyanopyrimidin-4-yl)amino)ethyl)-5-chloro-4-oxoquinazolin-3(4H)-yl)phenyl)-3-cyclohexylurea] |
| 7 nM | 3 nM | 2200 nM |  | C[C@H](Nc1ncnc(N)c1C#N)c1nc2cccc(Cl)c2c(=O)n1-c1cccc(NC(=O)NC2CCC2)c1 [Compound 123, (S)-1-(3-(2-(1-((6-amino-5-cyanopyrimidin-4-yl)amino)ethyl)-5-chloro-4-oxoquinazolin-3(4H)-yl)phenyl)-3-cyclobutylurea] |
| 14 nM | 9 nM | 3300 nM |  | C[C@H](Nc1ncnc(N)c1C#N)c1nc2cccc(Cl)c2c(=O)n1-c1cccc(NC(=O)NC(C)(C)C)c1 [Compound 124, (S)-1-(3-(2-(1-((6-amino-5-cyanopyrimidin-4-yl)amino)ethyl)-5-chloro-4-oxoquinazolin-3(4H)-yl)phenyl)-3-(tert-butyl)urea] |
| 7 nM | 7 nM | 3400 nM |  | C[C@H](Nc1ncnc(N)c1C#N)c1nc2cccc(Cl)c2c(=O)n1-c1cccc(NC(=O)NC2CC2)c1 [Compound 125, (S)-1-(3-(2-(1-((6-amino-5-cyanopyrimidin-4-yl)amino)ethyl)-5-chloro-4-oxoquinazolin-3(4H)-yl)phenyl)-3-cyclopropylurea] |
| 8 nM | 4 nM | 2900 nM |  | CCCNC(=O)Nc1cccc(-n2c([C@H](C)Nc3ncnc(N)c3C#N)nc3cccc(Cl)c3c2=O)c1 [Compound 126, (S)-1-(3-(2-(1-((6-amino-5-cyanopyrimidin-4-yl)amino)ethyl)-5-chloro-4-oxoquinazolin-3(4H)-yl)phenyl)-3-propylurea] |
| 8 nM | 5 nM | 5800 nM |  | C[C@H](Nc1ncnc(N)c1C#N)c1nc2cccc(Cl)c2c(=O)n1-c1cccc(NC(=O)NCCF)c1 [Compound 127, (S)-1-(3-(2-(1-((6-amino-5-cyanopyrimidin-4-yl)amino)ethyl)-5-chloro-4-oxoquinazolin-3(4H)-yl)phenyl)-3-(2-fluoroethyl)urea] |
| 9 nM | 4 nM | 5600 nM |  | C[C@H](Nc1ncnc(N)c1C#N)c1nc2cccc(Cl)c2c(=O)n1-c1cccc(NC(=O)NCCCO)c1 [Compound 128, (S)-1-(3-(2-(1-((6-amino-5-cyanopyrimidin-4-yl)amino)ethyl)-5-chloro-4-oxoquinazolin-3(4H)-yl)phenyl)-3-(3-hydroxypropyl)urea] |
| 9 nM | 4 nM | 5600 nM |  | CC(O)CNC(=O)Nc1cccc(-n2c([C@H](C)Nc3ncnc(N)c3C#N)nc3cccc(Cl)c3c2=O)c1 (stereo partly drawn) [Compound 129, 1-(3-(2-((S)-1-((6-amino-5-cyanopyrimidin-4-yl)amino)ethyl)-5-chloro-4-oxoquinazolin-3(4H)-yl)phenyl)-3-(2-hydroxypropyl)urea] |
| 43 nM | 41 nM |  | > 10000 nM | O=C(NCCCO)Nc1cccc(-n2c([C@H](COCc3ccccc3)Nc3ncnc4[nH]cnc34)nc3cccc(Cl)c3c2=O)c1 [Compound 131, (R)-1-(3-(2-(1-((9H-purin-6-yl)amino)-2-(benzyloxy)ethyl)-5-chloro-4-oxoquinazolin-3(4H)-yl)phenyl)-3-(3-hydroxypropyl)urea] |
| 21 nM | 10 nM | 8700 nM |  | CCNC(=O)Nc1cccc(-n2c([C@H](COCc3ccccc3)Nc3ncnc(N)c3C#N)nc3cccc(Cl)c3c2=O)c1 [Compound 132, (R)-1-(3-(2-(1-((6-amino-5-cyanopyrimidin-4-yl)amino)-2-(benzyloxy)ethyl)-5-chloro-4-oxoquinazolin-3(4H)-yl)phenyl)-3-ethylurea] |
| 5 nM | 10 nM | 6000 nM |  | COCCCNC(=O)Nc1cccc(-n2c([C@H](C)Nc3ncnc(N)c3C#N)nc3cccc(Cl)c3c2=O)c1 [Compound 134, (S)-1-(3-(2-(1-((6-amino-5-cyanopyrimidin-4-yl)amino)ethyl)-5-chloro-4-oxoquinazolin-3(4H)-yl)phenyl)-3-(3-methoxypropyl)urea] |
| 16 nM | 35 nM | 3500 nM |  | COCCCNC(=O)Nc1cccc(-n2c([C@H](C)Nc3ncnc4[nH]cnc34)nc3cccc(Cl)c3c2=O)c1 [Compound 135, (S)-1-(3-(2-(1-((9H-purin-6-yl)amino)ethyl)-5-chloro-4-oxoquinazolin-3(4H)-yl)phenyl)-3-(3-methoxypropyl)urea] |
| 1800 nM | 610 nM | > 10000 nM |  | CCNC(=O)Nc1cccc(-n2c([C@H](C)Nc3ncnc(N)c3C(=O)O)nc3cccc(Cl)c3c2=O)c1 [Compound 136, (S)-4-amino-6-((1-(5-chloro-3-(3-(3-ethylureido)phenyl)-4-oxo-3,4-dihydroquinazolin-2-yl)ethyl)amino)pyrimidine-5-carboxylic acid] |
| 33 nM | 12 nM | 7600 nM |  | C[C@H](Nc1ncnc(N)c1C#N)c1nc2cccc(Cl)c2c(=O)n1-c1cccc(NC(=O)NCCC(=O)O)c1 [Compound 137, (S)-3-(3-(3-(2-(1-((6-amino-5-cyanopyrimidin-4-yl)amino)ethyl)-5-chloro-4-oxoquinazolin-3(4H)-yl)phenyl)ureido)propanoic acid] |
| 4 nM | 7 nM | 5200 nM |  | C[C@H](Nc1ncnc(N)c1C#N)c1nc2cccc(Cl)c2c(=O)n1-c1cccc(NC(=O)NC(C)(C)CO)c1 [Compound 138, (S)-1-(3-(2-(1-((6-amino-5-cyanopyrimidin-4-yl)amino)ethyl)-5-chloro-4-oxoquinazolin-3(4H)-yl)phenyl)-3-(1-hydroxy-2-methylpropan-2-yl)urea] |

| SMILES | IC50 (PI3Kβ) | IC50 (PI3Kδ) | IC50 (PI3Kγ; [1]) | IC50 (PI3Kγ) |
| --- | --- | --- | --- | --- |
| C[C@H](Nc1ncnc(N)c1C#N)c1nc2cccc(Cl)c2c(=O)n1-c1cccc(NC(=O)NCCN(C)C)c1 [Compound 116, (S)-1-(3-(2-(1-((6-amino-5-cyanopyrimidin-4-yl)amino)ethyl)-5-chloro-4-oxoquinazolin-3(4H)-yl)phenyl)-3-(2-(dimethylamino)ethyl)urea, trifluoroacetic acid salt] | 2 nM | 4 nM | > 10000 nM |  |
| C[C@H](Nc1ncnc(N)c1C#N)c1nc2cccc(Cl)c2c(=O)n1-c1cccc(NC(=O)Nc2cccnc2)c1 [Compound 119, (S)-1-(3-(2-(1-((6-amino-5-cyanopyrimidin-4-yl)amino)ethyl)-5-chloro-4-oxoquinazolin-3(4H)-yl)phenyl)-3-(pyridin-3-yl)urea, trifluoroacetic acid salt] | 3 nM | 5 nM | 1400 nM |  |

Source: US10221197B2, “Phosphatidylinositol 3-kinase inhibitors” (Gilead Sciences, Inc., priority 2014, dated 2019)
